Test results reported in patent publication US20220340849A1, “BRAIN-CHIP MODELING NEURODEGENERATION AND NEUROINFLAMMATION IN PARKINSON'S DISEASE” (EMULATE, INC., priority 2019, published 2022).

Experiments:
[1] = system: brain channel cells of the SN Brain-Chip (dopaminergic neurons); experiment: Immunostaining of phospho-αSyn129 / αSyn accumulation in the brain channel; type: cell-based, human; conditions: 10 mM dose, compared to cells exposed to αSyn fibrils alone
Protocol: Thus, the capability of exogenously added fibrils was accessed for accumulation and processing cells of a SN Brain-Chip. Recombinant αSyn fibrils (4 μg/mL) was added in the culture medium of the brain channel under continuous flow, on Day 2 of the culture (FIG. 57A).
After three- and six-days upon-exposure to αSyn fibrils (D5 and D8 of the experiment, respectively), the exposed chips underwent immunostaining in order to determine the abundance of phosphoSer129-alph α-synuclein (phospho-αSyn129), a post-translational modification characteristic of pathogenic αSyn species^47,48.
Addition of exogenous alpha-synuclein to brain channel. Human recombinant αSyn monomers and pre-formed fibrils were purchased from Abcam (Monomers; ab218819, Fibrils; ab218819), and were diluted in DopaNeurons Media to a final concentration of 4 μg/mL. […]
For treatment, freshly prepared monomers and fibrils were used. […] Effluents, lysates, and staining were collected/fixed at day three- and day six post-exposure (D5 and D8 respectively), and were analyzed by a microplate reader, ELISA kits, and immunofluorescence microscopy.
Morphological analysis. […] Images were acquired with either an Olympus fluorescence microscope (IX83) or an inverted laser-scanning confocal microscope, e.g. Zeiss confocal microscope (AxiovertZ1 LSM880).

[2] = system: BBB in the SN Brain-Chip; experiment: Permeability assays (apparent permeability, Papp) on the SN Brain-Chip; type: cell-based, human; conditions: αSyn fibril damaged SN Brain-Chips, trehalose added via brain channel on day 5, read after 72 hours (D8)
Protocol: Thus, BBB permeability assays were measured on the SN Brain-Chip after exposure to αSyn fibrils, as compared to exposure to αSyn monomers or PBS.
Permeability Assays, e.g., evaluate the establishment and integrity of the barrier. Apparent permeability (Papp) of the barrier was calculated by following a previously described method^81. […] After 24 hrs, effluent from both channels was sampled to determine the dye's concentration (amount) that had diffused through the membrane. […] Then, the following equation was used to calculate apparent paracellular permeability (Papp) based on a standard curve and using the following formula:

[3] = system: endothelial cells of the SN Brain-Chip; experiment: Morphological analysis of tight junctions in endothelial cells in the αSyn fibril model; type: cell-based, human
Protocol: The junction protein expression of Claudin-5 was visualized by immunofluorescence staining with a Claudin-5 antibody and DAPI for cell nuclei. Scale bars: 50 μm.
Morphological analysis. Immunocytochemistry, including immunofluorescence microscopy, was conducted as previously described (Pediaditakis et al., 2020). Brief examples of methods are described herein. Brain-Chips were fixed with 4% paraformaldehyde in PBS for 10 min and then washed with PBS. Cells were blocked on the Brain-Chip in phosphate-buffered saline (PBS) containing 10% donkey serum (Sigma) at 4° C. overnight. Immunostaining was performed after permeabilization in PBS with 0.1% Saponin and blocking for 30 min in 10% donkey serum in PBS with 0.1% Saponin. Immunostaining was performed with specific primary antibodies (anti-TH, anti-GFAP, anti-NG2, anti-TMEM119, anti-pSer129-αSyn, anti-Cleaved Caspase-3, anti-CD68; Abcam), (anti-MAP2, and anti-CD31; Thermo Fisher Scientific), (anti-Claudin-1, anti-Claudin-5, anti-Occludin, anti-ZO-1; Invitrogen), in a 1:100 dilution in 10% donkey serum in PBS with 0.1% Saponin and incubated overnight on the Brain-Chip at 4° C. […] Images were acquired with either an Olympus fluorescence microscope (IX83) or an inverted laser-scanning confocal microscope, e.g. Zeiss confocal microscope (AxiovertZ1 LSM880).

[4] = system: HMC3 cells; conditions: 10 ng/ml, 24 h; cited from earlier work
[5] = system: neurons, astrocytes and microglia in the brain channel of the Brain-Chip; type: cell-based, human
Protocol: Neuroinflammation incorporates a broad spectrum of complex cellular responses that often contribute to the pathogenesis and progression of various neurological disorders. To study the effects of neuroinflammatory specific signals on the Brain-Chip, TNF-α was perfused within the brain channel at a pathophysiological concentration of 100 ng/mL (FIG. 36A and FIG. 35). […] In addition, excessive TNF-α levels have been reported to have an inhibitory effect on glutamate transporters, resulting in increased glutamate concentration in the CNS parenchyma, linking the central inflammatory response to glutamate-mediated toxicity. To test this hypothesis in this system, secreted glutamate levels were measured by enzyme-linked immunosorbent assay (ELISA).
In one embodiment, a model of neuroinflammation was provided by treating cells as a neurovascular unit (brain side) with TNF-alpha added to the brain channel. TNFα, was previously reported to mediate neuroinflammation and detected in patients with neurological. disorders. On days 0 and 1, cells were seeded on the top and bottom channel of one embodiment of a Brain-Chip, respectively. The Brain-Chip is then allowed to mature under flow conditions for 4 more days and on day 5, cells on the brain side are treated with TNFα, for 48 hrs. During exposure, effluent is collected, and on the last day of the experiment, cells in chips may be imaged, stained for immunohistochemistry and imaged. In some embodiments, cells are lysed for transcriptomic analysis. Thus, modeling neuroinflammation comprises Brain chips and methods of use where TNF-a and/or other inflammatory compounds are added to the Brain channel. In some embodiments, such neuroinflamed brain chips are used in methods for developing treatments in addition for testing compounds for efficacy and safety.
(§1) TNF-α treatment. To mimic the inflammatory condition, cells were treated on either brain or vascular channel with TNF-α (Tumor Necrosis Factor-α, R&D Systems; 210-TA). The treatment was initiated after the formation of a confluent monolayer at ˜5 days in culture. Cells were further incubated in a culturing medium, including TNF-α (100 ng/ml) up to 48 hours.
Morphological analysis. Immunocytochemistry, including immunofluorescence microscopy, was conducted as previously described (Pediaditakis et al., 2020). Brief examples of methods are described herein. Brain-Chips were fixed with 4% paraformaldehyde in PBS for 10 min and then washed with PBS. Cells were blocked on the Brain-Chip in phosphate-buffered saline (PBS) containing 10% donkey serum (Sigma) at 4° C. overnight. […] Images were acquired with either an Olympus fluorescence microscope (IX83) or an inverted laser-scanning confocal microscope, e.g. Zeiss confocal microscope (AxiovertZ1 LSM880).

[6] = system: Brain-Chip brain channel cells; experiment: Secreted cytokines (MSD V-PLEX) and glutamate in brain channel media of the TNF-α treated Brain-Chip; type: cell-based, human
Protocol: To determine whether the level of other inflammatory cytokines increases in this TNF-α model, levels of IFNγ, interleukin-1β (IL-1β) and IL-6, were measured following two days of exposure within the brain channel media. These cytokines are associated with the increase of BBB permeability.
In one embodiment, chips were seeded with human iPS-derived glutamatergic and GABAergic neurons (NeuCyte) at a density of 2×10^6 cells/mL and 0.75×10^6 cells/mL respectively, co-cultured with human primary microglia (ATCC; CRL3304) at a density of 1×10^5 cells/mL, human primary astrocytes (NeuCyte), and primary pericytes (Sciencell; 1200) at a density of 1×10^5 cells/mL, using “seeding medium” (NeuCyte), and incubated overnight. The next day, human iPS-derived Brain Microvascular Endothelial cells were seeded in the vascular channel at a density of 14-16×10^6 cells/mL using human serum-free endothelial cell medium supplemented with 5% human serum from platelet-poor human plasma (Sigma) and allowed to attach to the membrane overnight. Chips were then connected to the culture module. At this time, the medium supplying the brain channel was switched to maintenance medium (Neucyte), and the serum of the vascular medium was lowered to 2%. Chips were maintained under constant perfusion at 60 μL/hr through all chips' brain and vascular channels until day 7. Two additional commercial endothelial cell sources were used in experiments. Human primary endothelial cells (Cell Systems) and hCMEC/D3 (Millipore) were cultured in media according to the manufacturer's instructions.
as §1
ELISA analysis. The levels of IFNγ, IL-1β, and IL-6 were measured by M.S.D. 96-well plate Human Pro-Inflammatory V-PLEX Human Pro-Inflammatory Assay kits. The secreted levels of Glutamate were measured by Glutamate Assay Kit (Fluorometric) (Abcam; ab138883).

[7] = system: Blood-Brain Barrier of the Brain-Chip; experiment: BBB permeability to 3 kDa dextran in the TNF-α treated Brain-Chip; type: cell-based, human
Protocol: To directly measure how BBB permeability changed over time in response to TNFα, the transport of 3-kDa Cascade Blue dextran was evaluated across the BBB. Fluorescent dextran molecule was introduced in the vascular channel. After 24 hrs and 48 hrs of exposure, the amount of fluorescent dextran collected in the Brain-side was measured.
as §1
Permeability Assays, e.g., evaluate the establishment and integrity of the barrier. Apparent permeability (Papp) of the barrier was calculated by following a previously described method^81. Briefly, 100 μg mL^−1 (0.1 mg/mL) of dextran (3 kDa, e.g. Cascade Blue) and/or 20 μg mL^−1 of Lucifer (0.5 kDa) tracers were dosed (flowed) through the vascular channels for 24 hrs. After 24 hrs, effluent from both channels was sampled to determine the dye's concentration (amount) that had diffused through the membrane. Concentration of the dextran and Lucifer tracers in the outlet samples from both vascular and brain channels was determined by using BioTek (BioTek Instruments, Inc., Winooski, Vt., USA). […]
Here, SA is the surface area of sections of the channels that overlap (0.17 cm^2), QR and QD are the fluid flow rates in the dosing and receiving channels respectively, in units of cm^3/s, CR,0 and CD,0 are the recovered concentrations in the dosing and receiving channels respectively, in any consistent units. IgG permeability was also evaluated after dosing the vascular channel and measuring the IgG content on the brain channel. Detection and quantitation of serum immunoglobulin G (IgG1; Abcam) was performed using the ELISA kit (Abcam), after 24 hrs of perfusion.

[8] = system: iPS-derived brain endothelial cells; experiment: Immunofluorescence of ZO-1 and ICAM-1 in the vascular channel of the TNF-α treated Brain-Chip; type: cell-based, human
Protocol: BBB permeability assays were done on the Brain-Chip upon exposure to TNF-α compared to the untreated group.
Morphological analysis. Immunocytochemistry, including immunofluorescence microscopy, was conducted as previously described (Pediaditakis et al., 2020). Brief examples of methods are described herein. Brain-Chips were fixed with 4% paraformaldehyde in PBS for 10 min and then washed with PBS. Cells were blocked on the Brain-Chip in phosphate-buffered saline (PBS) containing 10% donkey serum (Sigma) at 4° C. overnight. Immunostaining was performed after permeabilization in PBS with 0.1% Saponin and blocking for 30 min in 10% donkey serum in PBS with 0.1% Saponin. Immunostaining was performed with specific primary antibodies (anti-TH, anti-GFAP, anti-NG2, anti-TMEM119, anti-pSer129-αSyn, anti-Cleaved Caspase-3, anti-CD68; Abcam), (anti-MAP2, and anti-CD31; Thermo Fisher Scientific), (anti-Claudin-1, anti-Claudin-5, anti-Occludin, anti-ZO-1; Invitrogen), in a 1:100 dilution in 10% donkey serum in PBS with 0.1% Saponin and incubated overnight on the Brain-Chip at 4° C. Additional primary antibodies were MAP2 (Thermo Fisher Scientific; MA512826), VGLUT1 (Thermo Fisher Scientific; 48-2400), GFAP (Abcam; ab53554), NG2 (Abcam; ab83178), CD68 (Abcam; ab213363), ICAM-1 (R&D Systems; BBA3), ZO-1 (Thermo Fisher Scientific; 402200), GLUT1 (Thermo Fisher Scientific; SPM498). Fluorescently conjugated secondary antibodies with Alexa Fluor-488, Alexa Fluor-568, or Alexa Fluor-647 (Abcam) were then used when the primary antibodies are not conjugated, incubated in the dark for 2 hr at room temperature. Cells were then counterstained with DAPI nuclear stain. Images were acquired with either an Olympus fluorescence microscope (IX83) or an inverted laser-scanning confocal microscope, e.g. Zeiss confocal microscope (AxiovertZ1 LSM880).

[9] = TNF-α 100 ng/mL perfused within the brain channel, two days, vs untreated
[10] = TNF-α 100 ng/mL in brain channel (neuroinflammation), two days, vs untreated
[11] = TNF-α perfused within the vascular channel (systemic inflammation), two days, vs untreated
[12] = TNF-α 100 ng/mL within the vascular channel, vs control

Q: Which results are given for OC[C@H]1O[C@H](O[C@H]2O[C@H](CO)[C@@H](O)[C@H](O)[C@H]2O)[C@H](O)[C@@H](O)[C@@H]1O [trehalose, O-α,-d-glucopyranosyl-[1→1]-α-d-glucopyranoside]?
A: accumulation of αSyn within the cells of the brain channel [1]: diminished the accumulation of αSyn; BBB permeability (3 kDa dextran) [2]: significantly decreased BBB permeability; tight junctions (ZO-1, Claudin-5) ([3]; αSyn fibril damaged SN Brain-Chips, trehalose treated, D8): rescuing damaged tight junctions; junction protein expression of ZO-1 ([3]; αSyn fibril model with or without trehalose treatment): restoration of junction protein expression of ZO-1

Q: Which “markers of activated microglia MHCII, CD68 and CD11b” value [4] does the source give for “IFN-gamma: cytokine used to activate HMC3 microglia cells” here?
A: upregulated

Q: For TNF-α, which “microglia activation (phenotypic changes, phagocytosis of latex beads)” value ([5]; TNF-alpha 100 ng/ml) is on record?
A: activates microglia as shown by phenotypic changes and induction of phagocytosis

Q: And the “proportion of the GFAP-positive cells” value [5, 9]?
A: significantly increased

Q: What about the “proportion of the MAP2-positive cells” value [5, 9] of the same compound?
A: decreased

Q: And the “activated microglia (CD68 expression)” value ([5]; TNF-α 100 ng/mL, brain channel, two days of exposure)?
A: activated microglia were also observed

Q: What about the “IL-6 production, Brain chips with and without microglial cells” value ([6]; TNF-alpha, 24 and 48 hours) of the same compound?
A: induced significant IL-6 production in both embodiments

Q: What about the “IL-6 secreted, Brain chips including microglial cells over those without” value ([6]; TNF-alpha, after both 24 and 48 hours) of the same compound?
A: unexpected significant increase

Q: What about the “secreted glutamate levels (ELISA), media of the brain channel” value ([6]; TNF-α 100 ng/mL brain channel, two days, vs untreated) of the same compound?
A: significantly higher

Q: And the “level of IFNγ in brain channel media” value [6, 10]?
A: significantly higher

Q: What about the “level of IL-1β in brain channel media” value [6, 10] of the same compound?
A: significantly higher

Q: And the “level of IL-6 in brain channel media” value [6, 10]?
A: significantly higher

Q: What about the “level of IL-6 in brain channel media, absence of microglia” value ([6]; TNF-α exposure, Brain-Chip without microglia) of the same compound?
A: not stigmatically changed

Q: And the “level of IFNγ in brain channel media” value [6, 11]?
A: significantly higher levels

Q: What about the “level of IL-1β in brain channel media” value [6, 11] of the same compound?
A: significantly higher levels

Q: What about the “level of IL-6 in brain channel media” value [6, 11] of the same compound?
A: significantly higher levels

Q: And the “permeability to 3 kDa dextran” value ([7]; TNF-α 100 ng/mL in brain channel, 24 and 48 hrs, time dependent)?
A: significantly increased permeability

Q: And the “permeability to 3 kDa dextran” value ([7]; TNF-α 100 ng/mL perfused within the vascular channel (systemic inflammation))?
A: significantly increased permeability

Q: What about the “transport through the BBB (apparent permeability) vs vehicle control” value ([7]; TNFα 100 ng/mL on the brain side, 24 hrs and 48 hrs) of the same compound?
A: significantly increased by three times over the control

Q: And the “expression of BBB tight junction protein ZO-1” value [8, 12]?
A: significantly attenuated

Q: And the “expression of ICAM-1” value [8, 12]?
A: increased

Q: And the ZO-1 expression ([8]; TNF-α in brain channel, 48 hrs)?
A: loss of ZO-1

Q: What about the “intercellular adhesion molecule 1 (ICAM-1) expression” value ([8]; TNF-α in brain channel, 48 hrs) of the same compound?
A: excessive increase
